Measurements as given in patent publication US8993527B2, “Methods, compositions, and formulations for preventing or reducing adverse effects in a patient” (Pericor Therapeutics, Inc., priority 2005, dated 2015).

Experiments:
ischemic myocardium = experiment: Inosine levels in venous blood of dogs during coronary artery occlusion; assay type: in vivo, dog; conditions: over the 60-minute assay period, vs saline
Source text: Thirteen mongrel dogs were anesthetized with phenobarbital. […] C.V. Dis. 20; 55 (1977). […] Two of the surviving saline-treated animals fibrillated. […] That the increase in the levels of adenosine is due, at least in part, to a reduction in the amount of ATP that is converted to inosine was shown by analysis of venous blood from dogs in Example III for inosine levels.

[1] = Phase 2 CABG trial: safety (serum glucose, uric acid, adverse events); assay type: in vivo, human
Experimental: In addition to the hemodynamic monitoring described above the following tests were performed at screening, on the first post-operative day and at discharge:
1. Hematology included hemoglobin, total white cell count and differential, hematocrit and platelet count.
4. Any adverse events were recorded throughout by the investigator, who assessed their severity and the relationship of these adverse experiences to the treatment.
11. Adverse Effects. The incidence, severity and drug-relatedness of any adverse effects were tabulated by treatment group by decreasing incidence of such effects in the high dose group. Statistical analysis was not performed.

ischemic rat hearts = experiment: Rat heart ischemia model: tissue adenosine levels; assay type: in vivo; conditions: intraperitoneal; hearts excised after 60 minutes, incubated 60 minutes at 37° C.
Experimental: Male rats were injected intraperitonealy with either the AICA riboside analog, AICA riboside or saline, as a control. After 60 minutes, the hearts were excised and incubated at 37° C. for a further 60 minutes. Tissue extracts were prepared and analyzed for adenosine by high performance liquid chromatography (HPLC).

NC(=O)c1ncn([C@@H]2O[C@H](CO)[C@@H](O)[C@H]2O)c1N [1 (1-110), 5-amino-1-β-D-ribofuranosyl-imidazole-4-carboxamide]
inosine levels (ischemic myocardium): more than twofold decrease | SERUM GLUCOSE, MEAN BASELINE ([1]; 0.05 mg/kg/min (n = 41)): 108.5 ± 4.8 mg/dL | SERUM URIC ACID, MEAN BASELINE ([1]; 0.05 mg/kg/min (n = 41)): 5.9 ± 0.2 mg/dL | SERUM GLUCOSE-MEAN CHANGES FROM BASELINE ([1]; 0.05 mg/kg/min, 24 HR POST): 44.2 ± 7.4 mg/dL | SERUM URIC ACID-MEAN CHANGES FROM BASELINE ([1]; 0.05 mg/kg/min, 24 HR POST): -0.5 ± 0.2 mg/dL | SERUM GLUCOSE-MEAN CHANGES FROM BASELINE ([1]; 0.05 mg/kg/min, DISCHARGE): 18.7 ± 6.3 mg/dL | SERUM URIC ACID-MEAN CHANGES FROM BASELINE ([1]; 0.05 mg/kg/min, DISCHARGE): 0.3 ± 0.2 mg/dL | SERUM GLUCOSE-MEAN CHANGES FROM BASELINE ([1]; 0.05 mg/kg/min, ICU + 0): 65.6 + 7.6 mg/dl | SERUM URIC ACID-MEAN CHANGES FROM BASELINE ([1]; 0.05 mg/kg/min, ICU + 0): -0.3 ± 0.1 mg/dL | SERUM GLUCOSE-MEAN CHANGES FROM BASELINE ([1]; 0.05 mg/kg/min, ICU + 4 HR): 53.6 + 11.9 mg/dl | SERUM URIC ACID-MEAN CHANGES FROM BASELINE ([1]; 0.05 mg/kg/min, ICU + 4 HR): -0.1 ± 0.1 mg/dL | SERUM GLUCOSE-MEAN CHANGES FROM BASELINE ([1]; 0.05 mg/kg/min, ICU + 8 HR): 58.8 + 12.1 mg/dl | SERUM URIC ACID-MEAN CHANGES FROM BASELINE ([1]; 0.05 mg/kg/min, ICU + 8 HR): -0.0 ± 0.1 mg/dL | SERUM GLUCOSE-MEAN CHANGES FROM BASELINE ([1]; 0.05 mg/kg/min, POST CPB): 116.5 ± 10.7 mg/dL | SERUM URIC ACID-MEAN CHANGES FROM BASELINE ([1]; 0.05 mg/kg/min, POST CPB): -0.6 ± 0.1 mg/dL | SERUM GLUCOSE-MEAN CHANGES FROM BASELINE ([1]; 0.05 mg/kg/min, PRE CPB): 18.6 ± 7.0 mg/dL | SERUM URIC ACID-MEAN CHANGES FROM BASELINE ([1]; 0.05 mg/kg/min, PRE CPB): -0.1 ± 0.1 mg/dL | SERUM GLUCOSE, MEAN BASELINE ([1]; 0.10 mg/kg/min (n = 35)): 120.6 ± 7.3 mg/dL | SERUM URIC ACID, MEAN BASELINE ([1]; 0.10 mg/kg/min (n = 35)): 5.7 ± 0.2 mg/dL | SERUM URIC ACID-MEAN CHANGES FROM BASELINE ([1]; 0.10 mg/kg/min, 24 HR POST): 0.3 ± 0.3 mg/dL | SERUM GLUCOSE-MEAN CHANGES FROM BASELINE ([1]; 0.10 mg/kg/min, DISCHARGE): 19.2 ± 7.0 mg/dL | SERUM URIC ACID-MEAN CHANGES FROM BASELINE ([1]; 0.10 mg/kg/min, DISCHARGE): -0.1 ± 0.2 mg/dL | SERUM GLUCOSE-MEAN CHANGES FROM BASELINE ([1]; 0.10 mg/kg/min, ICU + 0): 59.8 + 13.6 mg/dl | SERUM URIC ACID-MEAN CHANGES FROM BASELINE ([1]; 0.10 mg/kg/min, ICU + 0): 1.5 ± 0.2 mg/dL | SERUM GLUCOSE-MEAN CHANGES FROM BASELINE ([1]; 0.10 mg/kg/min, ICU + 4 HR): 55.5 + 9.6 mg/dl | SERUM URIC ACID-MEAN CHANGES FROM BASELINE ([1]; 0.10 mg/kg/min, ICU + 4 HR): 1.6 ± 0.2 mg/dL | SERUM GLUCOSE-MEAN CHANGES FROM BASELINE ([1]; 0.10 mg/kg/min, ICU + 8 HR): 44.4 + 7.5 mg/dl | SERUM URIC ACID-MEAN CHANGES FROM BASELINE ([1]; 0.10 mg/kg/min, ICU + 8 HR): 1.4 ± 0.2 mg/dL | SERUM GLUCOSE-MEAN CHANGES FROM BASELINE ([1]; 0.10 mg/kg/min, POST CPB): 120.6 ± 15.9 mg/dL | SERUM URIC ACID-MEAN CHANGES FROM BASELINE ([1]; 0.10 mg/kg/min, POST CPB): 0.4 ± 0.1 mg/dL | SERUM GLUCOSE-MEAN CHANGES FROM BASELINE ([1]; 0.10 mg/kg/min, PRE CPB): 4.8 ± 3.4 mg/dL | SERUM URIC ACID-MEAN CHANGES FROM BASELINE ([1]; 0.10 mg/kg/min, PRE CPB): 0.4 ± 0.1 mg/dL | uric acid effects in the initial high dose patients ([1]; 0.19 or 0.38 mg/kg/min, five drug-treated patients): significant hyperuricemia and elevated urinary uric acid levels with crystalluria | drug-treated patients with adverse events ([1]; low dose group (0.05 mg/kg/min)): 28/41 | Tissue Adenosine Levels (% Increase vs. Saline) (ischemic rat hearts): 30%
